Laboratory results reported in the supplement of paper PMC9663587.

Experiments:
[1] = test system: HCC1187; assay: GRmax, 72 h; higher = less effect;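 also: breast cell lines in 384-well plates, nine doses across a 10^4 range, Dye Drop imaging of viable cells vs DMSO and time-zero plates, GR 0 means no net growth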
[2] = test system: 184A1; assay: GRmax, 72 h; higher = less effect;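 also: breast cell lines in 384-well plates, nine doses across a 10^4 range, Dye Drop imaging of viable cells vs DMSO and time-zero plates, GR 0 means no net growth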
[3] = test system: HCC1937; assay: GRmax, 72 h; higher = less effect;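 also: breast cell lines in 384-well plates, nine doses across a 10^4 range, Dye Drop imaging of viable cells vs DMSO and time-zero plates, GR 0 means no net growth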
[4] = test system: HCC1569; assay: GRmax, 72 h; higher = less effect;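 also: breast cell lines in 384-well plates, nine doses across a 10^4 range, Dye Drop imaging of viable cells vs DMSO and time-zero plates, GR 0 means no net growth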
[5] = test system: UACC812; assay: GRmax, 72 h; higher = less effect
[6] = test system: ZR7530; assay: GRmax, 72 h; higher = less effect
[7] = test system: HCC1806; assay: GRmax, 72 h; higher = less effect
[8] = test system: CAL120; assay: GRmax, 72 h; higher = less effect
[9] = test system: HCC1428; assay: area over the GR curve, 72 h; higher = more effect;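 also: Dye Drop or Deep Dye Drop imaging of viable cells in 384-well plates (Hoechst nuclei, LIVE/DEAD dye), nine half-log doses, GR normalized to DMSO controls and time-zero plates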
[10] = test system: HCC1500; assay: area over the GR curve, 72 h; higher = more effect;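 also: Dye Drop or Deep Dye Drop imaging of viable cells in 384-well plates (Hoechst nuclei, LIVE/DEAD dye), nine half-log doses, GR normalized to DMSO controls and time-zero plates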
[11] = test system: MDAMB157; assay: area over the GR curve, 72 h; higher = more effect;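 also: Dye Drop or Deep Dye Drop imaging of viable cells in 384-well plates (Hoechst nuclei, LIVE/DEAD dye), nine half-log doses, GR normalized to DMSO controls and time-zero plates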

SMILES | GRmax, 72 h [1] | GRmax, 72 h [2] | GRmax, 72 h [3] | GRmax, 72 h [4] | GRmax, 72 h [5] | GRmax, 72 h [6] | GRmax, 72 h [7] | GRmax, 72 h [8] | area over the GR curve [9] | area over the GR curve [10] | area over the GR curve [11]
COc1cc2c(Oc3ccc4[nH]c(C)cc4c3F)ncnc2cc1OCCCN1CCCC1 [Cediranib/AZD2171] (max 10 µM) | 0.349 GR | 0.167 GR | 0.278 GR | 0.875 GR | -0.575 GR | -0.145 GR | 0.0954 GR | -0.124 GR | 0.189 GR | 0.0909 GR | 0.349 GR
NC(=O)Nc1cc(-c2cccc(F)c2)sc1C(=O)N[C@H]1CCCNC1 [AZD7762] (max 10 µM) | -0.691 GR | -0.513 GR | -0.362 GR | -0.411 GR | -0.8 GR | 0.0949 GR | -0.482 GR | -0.495 GR | 0.323 GR | 0.614 GR | 0.984 GR
CC(C)NC[C@@H](C(=O)N1CCN(c2ncnc3c2[C@H](C)C[C@H]3O)CC1)c1ccc(Cl)cc1 [Ipatasertib/GDC0068] (max 10 µM) | 0.409 GR | 0.631 GR | 0.535 GR | 0.234 GR | 0.0704 GR | 0.438 GR | 0.945 GR | 0.599 GR | -0.0745 GR | -0.0881 GR | 0.0813 GR
CCc1cnn2c(NCc3ccc[n+]([O-])c3)cc(N3CCCC[C@H]3CCO)nc12 (max 1 µM) | -0.791 GR | -0.33 GR | -0.207 GR | -0.245 GR | -0.942 GR | -0.714 GR | -0.459 GR | -0.132 GR | 0.656 GR | 0.662 GR | 0.765 GR
Nc1ccc(-c2ccc3ncc4ccc(=O)n(-c5cccc(C(F)(F)F)c5)c4c3c2)cn1 [Torin2] (max 1 µM) | -0.0468 GR | 0.0958 GR | 0.0726 GR | -0.0827 GR | -0.817 GR | -0.0202 GR | -0.14 GR | -0.0115 GR | 0.439 GR | 0.888 GR | 0.41 GR
CC[C@@H]1C(=O)N(C)c2cnc(Nc3ccc(C(=O)N[C@H]4CC[C@H](N5CCN(CC6CC6)CC5)CC4)cc3OC)nc2N1C(C)C [Volasertib/BI6727] (max 1 µM) | -0.708 GR | -0.13 GR | -0.148 GR | 0.0147 GR | -0.496 GR | -0.42 GR | -0.132 GR | 0.0258 GR | 0.395 GR | 0.297 GR | 0.851 GR
O=C1NC(=O)[C@@H](c2cn3c4c(cccc24)CCC3)[C@@H]1c1c[nH]c2ccccc12 [Tivantinib/ARQ197] (max 10 µM) | -0.761 GR | -0.121 GR | -0.0621 GR | -0.11 GR | -0.84 GR | -0.539 GR | -0.218 GR | -0.256 GR | 0.345 GR | 0.491 GR | 0.388 GR
Cc1nc(Nc2ncc(C(=O)Nc3c(C)cccc3Cl)s2)cc(N2CCN(CCO)CC2)n1 [Dasatinib] (max 10 µM) | 0.069 GR | 0.192 GR | 0.0153 GR | -0.059 GR | -0.714 GR | -0.0607 GR | -0.0992 GR | 0.176 GR | 0.256 GR | 0.925 GR | 0.518 GR
Cc1nc(-c2cn3c(n2)-c2ccc(-c4cnn(C(C)(C)C(N)=O)c4)cc2OCC3)n(C(C)C)n1 [Taselisib/GDC0032] (max 10 µM) | -0.0769 GR | 0.0652 GR | 0.121 GR | -0.121 GR | -0.636 GR | -0.478 GR | -0.0297 GR | 0.151 GR | 0.139 GR | 0.209 GR | 0.339 GR
Cc1nc(NC(=O)N2CCC[C@H]2C(N)=O)sc1-c1ccnc(C(C)(C)C(F)(F)F)c1 [Alpelisib/BYL719] (max 10 µM) | 0.608 GR | 0.431 GR | 0.658 GR | 0.369 GR | -0.0521 GR | -0.0068 GR | 0.726 GR | 0.608 GR | 0.0107 GR | -0.0097 GR | 0.101 GR
CN(C)CC[C@H](CSc1ccccc1)Nc1ccc(S(=O)(=O)NC(=O)c2ccc(N3CCN(Cc4ccccc4-c4ccc(Cl)cc4)CC3)cc2)cc1[N+](=O)[O-] [ABT-737] (max 10 µM) | 0.492 GR | -0.0149 GR | 0.269 GR | -0.406 GR | 0.329 GR | 0.552 GR | 0.729 GR | -0.434 GR | 0.111 GR | 1.13 GR | 0.0446 GR
CS(=O)(=O)N1CCN(Cc2cc3nc(-c4cccc5[nH]ncc45)nc(N4CCOCC4)c3s2)CC1 [Pictilisib/GDC0941] (max 10 µM) | -0.293 GR | 0.0537 GR | 0.278 GR | -0.054 GR | -0.601 GR | -0.342 GR | 0.194 GR | 0.194 GR | 0.117 GR | 0.203 GR | 0.258 GR
O=C(c1cc(Cc2n[nH]c(=O)c3ccccc23)ccc1F)N1CCN(C(=O)C2CC2)CC1 [Olaparib/AZD2281] (max 10 µM) | 0.0867 GR | 0.563 GR | 0.685 GR | 0.565 GR | 0.199 GR | 0.653 GR | 0.489 GR | 0.269 GR | 0.323 GR | 0.0931 GR | 0.115 GR
CC(C)n1nc(-c2ccc3oc(N)nc3c2)c2c(N)ncnc21 [INK128/MLN0128] (max 3.162 µM) | 0.0961 GR | 0.139 GR | 0.358 GR | 0.088 GR | -0.707 GR | -0.109 GR | 0.262 GR | -0.0097 GR | 0.648 GR | 1.23 GR | 0.514 GR
Nc1cc(C(F)(F)F)c(-c2cc(N3CCOCC3)nc(N3CCOCC3)n2)cn1 [Buparlisib/NVP-BKM120] (max 10 µM) | -0.608 GR | -0.0111 GR | -0.226 GR | -0.163 GR | -0.822 GR | -0.408 GR | -0.269 GR | -0.272 GR | 0.344 GR | 0.512 GR | 0.302 GR
N.N.[Cl][Pt][Cl] [Cisplatin] (max 10 µM) | – | – | 0.006 GR | – | – | – | -0.365 GR | 0.188 GR | 0.221 GR | 0.0866 GR | 0.117 GR
